The text below walks through data of patent US20040014726A1, “Method for the preparation of a pharmaceutical composition, and its use” (priority 2000, published 2004).

The subject of data set [1] is mouse osteoprogenitor cells (preosteoblasts) supporting osteoclast formation. Description: Mouse spleen cell/osteoblast co-culture with pre-treated osteoprogenitor cells. Format: cell-based. To be noted: osteoprogenitor cells incubated with 10^-5 M for 24 h, then co-culture with spleen cells; data not shown. An excerpt:
Bone marrow stromal cells have long been known as a source of osteoprogenitor cells (Owen and Friedenstein 1988). […] These preosteoblasts can be further induced to form active osteoblasts by continuing the cultures for two more weeks in the presence of estrogen (17β-estradiol). During this culture period cells begin to express increasing levels of osteoblast markers, such as alkaline phosphatase, type I collagen and osteocalcin, and finally they are able to form bone. Bone formation is detected by bone nodule formation and calcium deposition in the cultures (Qu et al. 1998).
A co-culture system was developed, which contains mouse spleen cells and primary mouse osteoprogenitor cells. Osteoprogenitor cells were prepared from mouse marrow as described in section C.
When these two cell types were cultured in the presence of 1,25(OH)2D3, several osteoclasts were formed. Spleen cells alone with 1,25(OH)2D3 were not able to differentiate into osteoclasts. Mouse osteoprogenitor cells, which were able to support osteoclast formation, were incubated first with 10^−5 M of the said test compound for 24 h and then these cells were used in the co-culture with mouse spleen cells. […] This further supports the idea, that the test compound has direct inhibitory effect on osteoclast precursors.

The subject of the next data set is ovariectomized rats. In words: Tests on ovariectomized rats (pQCT and bone strength). Format: in vivo, rat. To be noted: 12 weeks. As to the method:
The activity of [[(3-hydroxy-2-pyridyl)amino]methylidene]bisphosphonic acid tetraethylester (TC) has been tested in ovariectornized rats. In the said tests, the compound to be tested was administered to six-month old rats. The control rats were sham-operated or overiectomized and given vehicle. The compound was given to ovariectomized rats orally 7 days a week for 12 weeks beginning immediately after the surgery. The doses were 10, 50 and 100 mg/kg/day. At the end of the study, the mineral density and the geometry of the bone was measured with pQCT (peripheral quantitative computed tomography). The strength of the bone was measured with electromechanical materials testing machine. The sites of measurement were the proximal end of the tibia (not strength), the lumbar vertebra, the femoral neck and the tibial mid-diaphysis. The parameters to be measured were the bone density of the trabecular or cortical bone, the cortical area and strength of the bone.

The next data set concerns isolated rat osteoclasts. In words: Rat osteoclast culture on bovine bone slices. Format: cell-based. As to the method:
Osteoclasts can be isolated from long bones of several species and they are cultured on bone or dentine slices to study their resorption activity (Boyde et al. 1984, Chambers et al 1984). Mostly, either rat or rabbit osteoclasts are used. They are isolated from new-born animals and cultured for 1-2 days. The resorption activity is determined either by counting the number of resorption pits on bone/dentine slices or the total resorption area is measured using a phase contrast microscope and image analysis system. We are routinely using isolated rat osteoclasts and we culture them on bovine bone slices for two days, after which we fix the cells. Cells are stained with toluidine blue and counted under the microscope (Arnett and Dempster 1987, Lakkakorpi et al. 1989). Then the cells are removed by brushing them and the resorption pits are stained with WGA lectin, which binds to resorption lacuna in the bone slice. The number and area of pits are quantified (Selander et al. 1994).
(§1) The concentration range of the test compound in these assays was 10^−10-10^−5 M.

Data set [2] relates to osteoclast formation in mouse bone marrow culture. Description: Mouse bone marrow culture, osteoclast formation (TRAP-positive multinucleated cells). Format: cell-based. As to the method:
This culture system is the most used method to study osteoclast differentiation (Takahashi et al. 1988a). Mouse marrow cells can be induced to form active osteoclasts in 6-8 days in the presence of an osteotropic factor, such as 1,25(OH)2D3, parathyroid hormone, interleukin-1 or prostaglandin E2 (Takahashi et al. 1988b, Shinar et al. 1990, Collins and Chambers 1992, Jimi et al. 1999). Typically, 10^6 cells are cultured/ml of media for 6 days. Then, the cells are fixed with 3% paraformaldehyde in PBS and stained for osteoclast marker, such as tartrate-resistant acid phosphatase (TRAP). Sigma's immunohistochemical kit can be used. Multinucleated, TRAP-positive cells containing at least 3 nuclei are counted as osteoclasts (Hentunen et al. 1998).
as §1

Data set [3] concerns osteoclast formation in spleen cell culture. Description: Mouse spleen cell culture, osteoclast formation. Format: cell-based.
Excerpt: as §1

For data set [4], the system named is bone metastases of human breast cancer cells in the mouse. Description: Metastasis model in mouse (human breast cancer cells, osteolytic bone lesions). Format: in vivo. The settings on record: 50 mg/kg/day s.c. for 10 days. As to the method: The effect of the test compound has been tested in a metastasis model in the mouse. 14 days after inoculation with human breast cancer cells, when the radiologically detected osteolytic bone lesions were found, the animals were treated either with PBS (control) or the test compound (50 mg/kg/day, s.c.) for 10 days. At the end of the study, osteoclast number and bone area were measured histomorphometrically.

With `CCOP(=O)(OCC)C(Nc1ncccc1O)P(=O)(OCC)OCC` [test compound, [[(3-hydroxy-2-pyridinyl)amino]methylidene]bisphosphonic acid tetraethylester], the “support of osteoclast formation by treated preosteoblasts” value in data set [1] was “supported osteoclast formation in the similar manner as non-treated preosteoblasts”. For the same compound, in the data set on ovariectomized rats (50 mg/kg/day oral), the “change in the cortical area in the femoral neck caused by ovariectomy” value is reported as “inhibited the change” and the “strength of the tibial mid-diaphysis” value was “improved, although not to a significantly meaningful degree”. Besides, the “cortical area in the tibial mid-diaphysis” value in the data set on ovariectomized rats (50 mg/kg/day oral, compared to a normal rat and an ovariectomized rat) is listed as “increase of the cortical area”. The “change in the trabecular density in the femoral neck caused by ovariectomy” value in the data set with ovariectomized rats (100 mg/kg/day oral) was “inhibited the change”. Besides, in the data set with ovariectomized rats (50 and 100 mg/kg/day oral), the “area of the cortical bone in the lumbar vertebra, reduction by ovariectomy” value was “inhibit these changes”; the “density of the trabecular bone in the lumbar vertebra, reduction by ovariectomy” value was “inhibit these changes”; the “strength of the cortical bone in the lumbar vertebra, reduction by ovariectomy” value is listed as “inhibit these changes”. Further, in the data set on ovariectomized rats (oral, FIG. 5 lower row), the “thickness of the cortical bone (pQCT), reduction caused by ovariectomy” value is “can be inhibited”. Besides, the osteoclast-mediated bone resorption entry with isolated rat osteoclasts (data not shown) was “did not have any effect”. Besides, in the data set on isolated rat osteoclasts (osteoclasts cultured for 1-2 days on bovine bone slices), the osteoclast apoptosis entry is given as “did not have any effect”. The inhibition at 1 µM in data set [2] (Mus musculus, Osteoclast, at 10^-6 M) is 60%. In data set [2] (at 10^-5 M), the “TRAP-positive MNC formation” value is given as “inhibit completely” and the “toxic effect on other cells” value is given as “without having toxic effect on other cells”. Moreover, in data set [2] (bone marrow culture, concentration range 10^-10-10^-5 M), the “1,25(OH)2D3- and PTH-induced osteoclast formation” value is given as “dose dependently inhibited”. In data set [3] (Mus musculus, Osteoclast, at 10^-6 M concentration), this compound yielded an inhibition at 1 µM of 60%. The “TRAP-positive MNC formation” value in data set [3] (at 10^-5 M) is recorded as “completely blocked”. In data set [3] (at 10^-5 M, data not shown), the “osteoclast-like cell formation (TRAP-positive MNC or mononuclear cells)” value is on record as “totally blocked”. Besides, in data set [3] (compound present on days 4-6), the “inhibition of osteoclast formation” value is “approximately 40%”. In data set [3] (compound present only at days 1-3), the “inhibition of osteoclast formation” value is listed as “more than 60%”. For the same compound, in data set [3] (concentration range 10^-10-10^-5 M), the “osteoclast formation in spleen cell culture” value was “dose dependently inhibited”. For the same compound, the “tumor induced decrease in bone area at the site of metastases” value in data set [4] is “inhibited”. Moreover, in data set [4] (compared to PBS control), the “number of osteoclasts at the tumor-bone interface” value was “decreased significantly”.
